Test results published in US7371763B2, “Inhibition of raf kinase using quinolyl, isoquinolyl or pyridyl ureas” (Bayer Pharmaceuticals Corporation, priority 2001, dated 2008).

melting point: 198 to 199 °C
Compound: CC(C)(C)c1ccnc(NC(=O)Nc2ccc(Oc3ccc(Cl)cc3)cc2)c1 [Entry 8, N-(4-tert-Butylpyridyl)-N′-(4-(4-chlorophenoxy)phenyl) urea]
